According to PMC5218480 (PLoS ONE, 2017):

System: MV-4-11 cells
Experiment: Gene expression microarray analysis (Affymetrix PrimeView) and GSEA
Type: cell-based, human
Design: RFU PODN (11730768_x_at) / Fold change /veh PODN (11730768_x_at) / RFU LINC00158 (11744669_a_at) / Fold change /veh LINC00158 (11744669_a_at) / RFU DUSP10 (11751237_a_at) / Fold change /veh DUSP10 (11751237_a_at) / RFU ID3 (11757404_x_at) / Fold change /veh ID3 (11757404_x_at) / RFU PLEKHG5 (11737974_s_at) / Fold change /veh PLEKHG5 (11737974_s_at) / RFU LRRC4B (11730491_at) / Fold change /veh LRRC4B (11730491_at) / RFU GIMAP4 (11747438_a_at) / Fold change /veh GIMAP4 (11747438_a_at) / RFU KRT8 (11758183_x_at) / Fold change /veh KRT8 (11758183_x_at) / RFU CNN1 (11734310_a_at) / Fold change /veh CNN1 (11734310_a_at) / RFU VPS37D (11726825_at) / Fold change /veh VPS37D (11726825_at) / RFU C10orf10 (11716522_x_at) / Fold change /veh C10orf10 (11716522_x_at) / RFU KIR2DL2 /// KIR2DL4 /// KIR2DL5A /// KIR2DL5B /// KIR2DS1 /// KIR2DS2 /// KIR2DS3 /// KIR2DS4 /// KIR3DL3 /// KIR3DL3 /// KIR3DS1 (11738374_at) / Fold change /veh KIR2DL2 /// KIR2DL4 /// KIR2DL5A /// KIR2DL5B /// KIR2DS1 /// KIR2DS2 /// KIR2DS3 /// KIR2DS4 /// KIR3DL3 /// KIR3DL3 /// KIR3DS1 (11738374_at) / RFU C1QL1 (11718748_at) / Fold change /veh C1QL1 (11718748_at) / RFU TMPRSS4 (11747572_a_at) / Fold change /veh TMPRSS4 (11747572_a_at) / RFU HAMP (11756126_x_at) / Fold change /veh HAMP (11756126_x_at) / RFU RNFT2 (11725882_a_at) / Fold change /veh RNFT2 (11725882_a_at) / RFU NR4A2 (11747474_a_at) / Fold change /veh NR4A2 (11747474_a_at) / RFU ABCC12 (11746883_a_at) / Fold change /veh ABCC12 (11746883_a_at) / RFU TMEM136 (11760407_x_at) / Fold change /veh TMEM136 (11760407_x_at) / RFU CLDN22 /// WWC2 (11732394_at) / Fold change /veh CLDN22 /// WWC2 (11732394_at) / RFU HLA-DPB1 (11760878_x_at) / Fold change /veh HLA-DPB1 (11760878_x_at) / RFU SPINT1 (11716480_a_at) / Fold change /veh SPINT1 (11716480_a_at) / RFU GAP43 (11754022_s_at) / Fold change /veh GAP43 (11754022_s_at) / RFU A4GNT (11735810_at) / Fold change /veh A4GNT (11735810_at) / RFU PRB3 (11715151_x_at) / Fold change /veh PRB3 (11715151_x_at) / RFU TUBB4B (11761932_at) / Fold change /veh TUBB4B (11761932_at) / RFU CAPN14 (11732068_a_at) / Fold change /veh CAPN14 (11732068_a_at) / RFU TMCC2 (11721928_a_at) / Fold change /veh TMCC2 (11721928_a_at) / RFU IRGQ (11745062_a_at) / Fold change /veh IRGQ (11745062_a_at) / RFU FAM174B (11720279_a_at) / Fold change /veh FAM174B (11720279_a_at) / RFU TMPRSS4 (11748680_a_at) / Fold change /veh TMPRSS4 (11748680_a_at) / RFU FAM212B (11763350_a_at) / Fold change /veh FAM212B (11763350_a_at) / RFU PLEKHG5 (11743358_a_at) / Fold change /veh PLEKHG5 (11743358_a_at) / RFU ZSCAN30 (11745921_a_at) / Fold change /veh ZSCAN30 (11745921_a_at) / RFU CMKLR1 (11741424_a_at) / Fold change /veh CMKLR1 (11741424_a_at) / RFU LOC101060620 /// MAPK8IP1 (11723275_at) / Fold change /veh LOC101060620 /// MAPK8IP1 (11723275_at) / RFU SPTSSB (11747773_x_at) / Fold change /veh SPTSSB (11747773_x_at) / RFU PRSS12 (11739890_at) / Fold change /veh PRSS12 (11739890_at) / RFU BIN1 (11741810_x_at) / Fold change /veh BIN1 (11741810_x_at) / RFU WNT11 (11732464_a_at) / Fold change /veh WNT11 (11732464_a_at) / RFU C10orf10 (11716521_a_at) / Fold change /veh C10orf10 (11716521_a_at) / RFU C5orf56 (11738089_at) / Fold change /veh C5orf56 (11738089_at) / RFU CYB561 (11721691_x_at) / Fold change /veh CYB561 (11721691_x_at) / RFU ANKRD19P (11752326_a_at) / Fold change /veh ANKRD19P (11752326_a_at) / RFU OR2T12 /// OR2T33 /// OR2T8 (11738714_s_at) / Fold change /veh OR2T12 /// OR2T33 /// OR2T8 (11738714_s_at) / RFU VCAN (11748164_a_at) / Fold change /veh VCAN (11748164_a_at) / RFU JSRP1 (11732532_at) / Fold change /veh JSRP1 (11732532_at) / RFU KRTAP10-11 (11738290_x_at) / Fold change /veh KRTAP10-11 (11738290_x_at) / RFU MYO3A (11730013_a_at) / Fold change /veh MYO3A (11730013_a_at) / RFU EBF3 (11725865_a_at) / Fold change /veh EBF3 (11725865_a_at) / RFU CAMK2N1 (11719241_x_at) / Fold change /veh CAMK2N1 (11719241_x_at) / RFU C5orf56 (11738088_a_at) / Fold change /veh C5orf56 (11738088_a_at) / RFU OLFML3 (11715873_a_at) / Fold change /veh OLFML3 (11715873_a_at) / RFU LOC100653217 /// NTM (11731650_a_at) / Fold change /veh LOC100653217 /// NTM (11731650_a_at) / RFU MAPK11 (11762145_a_at) / Fold change /veh MAPK11 (11762145_a_at) / RFU FIZ1 (11724087_x_at) / Fold change /veh FIZ1 (11724087_x_at) / RFU OASL (11726364_x_at) / Fold change /veh OASL (11726364_x_at) / RFU SOX15 (11748057_x_at) / Fold change /veh SOX15 (11748057_x_at) / RFU CD79A (11719716_a_at) / Fold change /veh CD79A (11719716_a_at) / RFU HIST1H1D (11736915_at) / Fold change /veh HIST1H1D (11736915_at) / RFU CASKIN2 (11723855_a_at) / Fold change /veh CASKIN2 (11723855_a_at) / RFU LOC730098 (11760151_x_at) / Fold change /veh LOC730098 (11760151_x_at) / RFU OR4N2 (11742367_at) / Fold change /veh OR4N2 (11742367_at) / RFU PRRT2 (11749266_a_at) / Fold change /veh PRRT2 (11749266_a_at) / RFU SNX32 (11753110_a_at) / Fold change /veh SNX32 (11753110_a_at) / RFU CDHR5 (11726645_a_at) / Fold change /veh CDHR5 (11726645_a_at) / RFU RCAN1 (11760418_a_at) / Fold change /veh RCAN1 (11760418_a_at) / RFU FAM167A (11723789_a_at) / Fold change /veh FAM167A (11723789_a_at) / RFU FAM26E (11764081_at) / Fold change /veh FAM26E (11764081_at) / RFU ISYNA1 (11749810_s_at) / Fold change /veh ISYNA1 (11749810_s_at) / RFU ACY1 (11761880_at) / Fold change /veh ACY1 (11761880_at) / RFU 11764098_at / Fold change /veh 11764098_at / RFU SAMD14 (11745864_x_at) / Fold change /veh SAMD14 (11745864_x_at) / RFU NPB (11741838_a_at) / Fold change /veh NPB (11741838_a_at) / RFU TMPRSS6 (11731388_a_at) / Fold change /veh TMPRSS6 (11731388_a_at) / RFU KRTAP10-2 (11738614_at) / Fold change /veh KRTAP10-2 (11738614_at) / RFU ARHGAP8 /// PRR5-ARHGAP8 (11727945_x_at) / Fold change /veh ARHGAP8 /// PRR5-ARHGAP8 (11727945_x_at) / RFU KRTAP5-7 /// NADSYN1 (11734609_at) / Fold change /veh KRTAP5-7 /// NADSYN1 (11734609_at) / RFU RASL12 (11751679_a_at) / Fold change /veh RASL12 (11751679_a_at) / RFU CDKN2B (11736163_a_at) / Fold change /veh CDKN2B (11736163_a_at) / RFU PRF1 (11729649_at) / Fold change /veh PRF1 (11729649_at) / RFU, ZNF638 /// ZNF638-IT1 / Fold change vs veh, ZNF638 /// ZNF638-IT1 / RFU, PANK3 / Fold change vs veh, PANK3 / RFU, SH3YL1 / Fold change vs veh, SH3YL1 / RFU, ZEB2 / Fold change vs veh, ZEB2 / RFU, NRIP1 / Fold change vs veh, NRIP1 / RFU, PTTG1IP / Fold change vs veh, PTTG1IP / RFU, CAPN2 / Fold change vs veh, CAPN2 / RFU, MED14 / Fold change vs veh, MED14 / RFU, SNORA58 / Fold change vs veh, SNORA58 / RFU, C1orf63 / Fold change vs veh, C1orf63 / RFU, LRRFIP1 / Fold change vs veh, LRRFIP1 / RFU, NDUFAF7 / Fold change vs veh, NDUFAF7 / RFU, SLC12A2 / Fold change vs veh, SLC12A2 / RFU, IBTK / Fold change vs veh, IBTK / RFU, ESF1 / Fold change vs veh, ESF1 / Fold change vs veh, TMEM50B / RFU, TAOK1 / Fold change vs veh, TAOK1 / RFU, ACBD3 / Fold change vs veh, ACBD3 / RFU, TMA16 / Fold change vs veh, TMA16 / RFU, RWDD3 / Fold change vs veh, RWDD3 / RFU, BCAT1 / Fold change vs veh, BCAT1 / RFU, EDEM3 / Fold change vs veh, EDEM3 / RFU, TMEM33 / Fold change vs veh, TMEM33 / RFU, WDR75 / Fold change vs veh, WDR75 / RFU, AHCTF1 / Fold change vs veh, AHCTF1 / RFU, TFRC / Fold change vs veh, TFRC / RFU, ZDHHC17 / Fold change vs veh, ZDHHC17 / RFU, NOM1 / Fold change vs veh, NOM1 / RFU, ARL8B / Fold change vs veh, ARL8B / RFU, ZBTB11 / Fold change vs veh, ZBTB11 / RFU, TAMM41 / Fold change vs veh, TAMM41 / RFU, KIAA1704 /// LOC100996395 / Fold change vs veh, KIAA1704 /// LOC100996395 / RFU, ING1 / Fold change vs veh, ING1 / RFU, TRMT61B / Fold change vs veh, TRMT61B / RFU, FUBP3 / Fold change vs veh, FUBP3 / RFU, TP53 / Fold change vs veh, TP53 / RFU, TNKS2 / Fold change vs veh, TNKS2 / RFU, ZFP14 / Fold change vs veh, ZFP14 / RFU, ACTR2 / Fold change vs veh, ACTR2 / RFU, PPP3R1 / Fold change vs veh, PPP3R1 / RFU, PIK3R1 / Fold change vs veh, PIK3R1 / RFU, HNRNPA1 / Fold change vs veh, HNRNPA1 / RFU, RNF170 / Fold change vs veh, RNF170 / RFU, ZNF28 / Fold change vs veh, ZNF28 / RFU, RNGTT / Fold change vs veh, RNGTT / RFU, OGT / Fold change vs veh, OGT / RFU, BRD1 / Fold change vs veh, BRD1 / RFU, MARS / Fold change vs veh, MARS / RFU, ZNF655 / Fold change vs veh, ZNF655 / RFU, FAHD1 / Fold change vs veh, FAHD1 / RFU, BDP1 / Fold change vs veh, BDP1 / RFU, LRRCC1 / Fold change vs veh, LRRCC1 / RFU, ARID1A / Fold change vs veh, ARID1A / RFU, ZNF146 / Fold change vs veh, ZNF146 / RFU, ZNF330 / Fold change vs veh, ZNF330 / RFU, GPN3 / Fold change vs veh, GPN3 / RFU, C9orf123 / Fold change vs veh, C9orf123 / RFU, N4BP2L2 / Fold change vs veh, N4BP2L2 / RFU, ARFIP1 / Fold change vs veh, ARFIP1 / RFU, FAM179B / Fold change vs veh, FAM179B / RFU, BCL10 / Fold change vs veh, BCL10 / RFU, UHRF1BP1L / Fold change vs veh, UHRF1BP1L / RFU, BET1 / Fold change vs veh, BET1 / RFU, CNOT2 / Fold change vs veh, CNOT2 / RFU, ZNF268 / Fold change vs veh, ZNF268 / Fold change vs veh, ZNF507 / RFU, DGCR2 / Fold change vs veh, DGCR2 / RFU, WDSUB1 / Fold change vs veh, WDSUB1 / Fold change vs veh, HSP90B1 /// MIR3652 / RFU, ADSS / Fold change vs veh, ADSS / RFU, GK / Fold change vs veh, GK / RFU, ZNF148 / Fold change vs veh, ZNF148 / RFU, TAF9 / Fold change vs veh, TAF9 / RFU, SLC1A5 / Fold change vs veh, SLC1A5 / RFU, SLMO2 / Fold change vs veh, SLMO2 / RFU, ABCC4 / Fold change vs veh, ABCC4 / RFU, LOC101060439 /// RAP1B / Fold change vs veh, LOC101060439 /// RAP1B / RFU, RFX7 / Fold change vs veh, RFX7 / RFU, GTPBP10 / Fold change vs veh, GTPBP10 / RFU, CNEP1R1 / Fold change vs veh, CNEP1R1 / RFU, BIVM-ERCC5 /// ERCC5 / Fold change vs veh, BIVM-ERCC5 /// ERCC5 / RFU, ILF3 / Fold change vs veh, ILF3 / RFU 11762660_at / Fold change /veh 11762660_at / RFU VCAN (11757783_s_at) / Fold change /veh VCAN (11757783_s_at) / RFU DDX43 (11728927_at) / Fold change /veh DDX43 (11728927_at) / RFU KRT8 (11758188_x_at) / Fold change /veh KRT8 (11758188_x_at) / RFU NKD1 (11759106_at) / Fold change /veh NKD1 (11759106_at) / RFU SRD5A1 (11742802_a_at) / Fold change /veh SRD5A1 (11742802_a_at) / RFU TPSAB1 /// TPSB2 (11721975_s_at) / Fold change /veh TPSAB1 /// TPSB2 (11721975_s_at) / RFU GSTM3 (11746129_a_at) / Fold change /veh GSTM3 (11746129_a_at) / RFU IL23R (11737362_x_at) / Fold change /veh IL23R (11737362_x_at) / RFU TMEM51 (11727254_a_at) / Fold change /veh TMEM51 (11727254_a_at) / RFU PIWIL2 (11732686_x_at) / Fold change /veh PIWIL2 (11732686_x_at) / RFU ORM1 (11744905_x_at) / Fold change /veh ORM1 (11744905_x_at) / RFU CCDC152 (11743942_at) / Fold change /veh CCDC152 (11743942_at) / RFU ECM1 (11717891_a_at) / Fold change /veh ECM1 (11717891_a_at) / RFU IL23R (11748794_a_at) / Fold change /veh IL23R (11748794_a_at) / RFU TNFAIP8L3 (11732012_x_at) / Fold change /veh TNFAIP8L3 (11732012_x_at) / RFU MBOAT4 (11741988_at) / Fold change /veh MBOAT4 (11741988_at) / RFU 11764193_at / Fold change /veh 11764193_at / RFU TMEM53 (11763286_at) / Fold change /veh TMEM53 (11763286_at) / RFU MAGEB2 (11727129_at) / Fold change /veh MAGEB2 (11727129_at) / RFU TMEM200A (11744735_a_at) / Fold change /veh TMEM200A (11744735_a_at) / RFU CCDC152 (11751479_a_at) / Fold change /veh CCDC152 (11751479_a_at) / RFU FAM211A (11726209_a_at) / Fold change /veh FAM211A (11726209_a_at) / RFU RGS16 (11746705_a_at) / Fold change /veh RGS16 (11746705_a_at) / RFU VCAN (11755009_s_at) / Fold change /veh VCAN (11755009_s_at) / RFU RHOB (11743442_s_at) / Fold change /veh RHOB (11743442_s_at) / RFU RGS16 (11720943_a_at) / Fold change /veh RGS16 (11720943_a_at) / RFU RGS16 (11720944_at) / Fold change /veh RGS16 (11720944_at) / RFU, VPS4B / Fold change vs veh, VPS4B / RFU, CREB1 / Fold change vs veh, CREB1 / RFU, DNAJC13 / Fold change vs veh, DNAJC13 / RFU, GNAQ / Fold change vs veh, GNAQ / RFU, CDK5R1 / Fold change vs veh, CDK5R1 / RFU, ZRANB3 / Fold change vs veh, ZRANB3 / RFU, CUL4A / Fold change vs veh, CUL4A / RFU, CCNY / Fold change vs veh, CCNY / RFU, UFL1 / Fold change vs veh, UFL1 / RFU, COG3 / Fold change vs veh, COG3 / RFU, DIAPH2 / Fold change vs veh, DIAPH2 / RFU, SKA2 / Fold change vs veh, SKA2 / RFU, AFF3 / Fold change vs veh, AFF3 / RFU, LMF1 / Fold change vs veh, LMF1 / RFU, IPO11 / Fold change vs veh, IPO11 / RFU, DFFB / Fold change vs veh, DFFB / RFU, FOXP1 / Fold change vs veh, FOXP1 / RFU, CARD8 / Fold change vs veh, CARD8 / RFU, STRN3 / Fold change vs veh, STRN3 / RFU, ADK / Fold change vs veh, ADK / RFU, RASSF2 / Fold change vs veh, RASSF2 / RFU, WIPF1 / Fold change vs veh, WIPF1 / RFU, LARP1B / Fold change vs veh, LARP1B / RFU, RASA1 / Fold change vs veh, RASA1 / RFU, RB1 / Fold change vs veh, RB1 / RFU, PPFIA1 / Fold change vs veh, PPFIA1 / RFU, MAT2A / Fold change vs veh, MAT2A / RFU, CCT5 / Fold change vs veh, CCT5 / RFU, WDR92 / Fold change vs veh, WDR92 / RFU, CUX1 / Fold change vs veh, CUX1 / RFU, TTC7A / Fold change vs veh, TTC7A / RFU, TMEM135 / Fold change vs veh, TMEM135 / RFU, DEPTOR / Fold change vs veh, DEPTOR / RFU, CPM / Fold change vs veh, CPM / RFU, DNAJB6 / Fold change vs veh, DNAJB6 / RFU, CACNA2D3 / Fold change vs veh, CACNA2D3 / RFU, DTX4 / Fold change vs veh, DTX4 / RFU, TFCP2 / Fold change vs veh, TFCP2 / RFU, GMCL1 /// GMCL1P1 / Fold change vs veh, GMCL1 /// GMCL1P1 / RFU, AEBP2 / Fold change vs veh, AEBP2 / RFU, SNHG1 /// SNORD22 /// SNORD25 /// SNORD26 /// SNORD27 /// SNORD28 /// SNORD29 /// SNORD31 / Fold change vs veh, SNHG1 /// SNORD22 /// SNORD25 /// SNORD26 /// SNORD27 /// SNORD28 /// SNORD29 /// SNORD31 / Fold change (Aza/veh), C12orf56 (ProbeSet 11735607_a_at) / Fold change (ACY-1035/veh), C12orf56 (ProbeSet 11735607_a_at) / Fold change (Aza/veh), FGFR1OP (ProbeSet 11751329_s_at) / Fold change (ACY-1035/veh), FGFR1OP (ProbeSet 11751329_s_at) / Fold change (Aza/veh), VPS36 (ProbeSet 11739960_a_at) / Fold change (ACY-1035/veh), VPS36 (ProbeSet 11739960_a_at) / RFU SYPL1 (11715823_x_at) / Fold change /veh SYPL1 (11715823_x_at) / RFU IGFBP7 (11715501_s_at) / Fold change /veh IGFBP7 (11715501_s_at) / RFU REEP3 (11722064_at) / Fold change /veh REEP3 (11722064_at) / RFU IGLL1 (11728026_x_at) / Fold change /veh IGLL1 (11728026_x_at): dose or concentration left out as unconfirmed
Conditions: MV-4-11 cells, 48 hours

## Nc1ccc(-c2cccs2)cc1NC(=O)c1ccc2c(c1)cc(C1CC1)n2CCN1CCOCC1 [ACY-1035]
  Fold change /veh RNFT2 (11725882_a_at): 1.00
